From publication PMC4842970, “Bioactivity Focus of α-Cyano-4-hydroxycinnamic acid (CHCA) Leads to Effective Multifunctional Aldose Reductase Inhibitors” (Scientific Reports, 2016) come the findings set out here.

The target of one data set is T1, human ALR2 (Homo sapiens, UniProt P15121).
T1 construct: purchased WAKO Pure Chemical Industries, Ltd. (Japan); host or cells: baculovirus-insect cell expression system
As to the kind of experiment: ALR2 inhibition (in vitro reduction of D,L-glyceraldehyde). The format is biochemical. As to the method:
Human ALR2 was purchased from WAKO Pure Chemical Industries, Ltd. (Japan), which was purified from the culture medium of baculovirus-insect cell expression system. […] ALR2 inhibition was determined spectrophotometrically according to the procedure described previously.

Data set [1] in a line: ORACFL radical absorbance capacity assay. The text has this:
With the CHCA scaffold, we hypothesized that 5a–j should have antioxidant activity. Therefore, a radical absorbance capacity assay (ORACFL)[41] was employed to assess their capacities. This method is based on the inhibition of peroxyl-radical-induced oxidation initiated by thermal decomposition of azo-compounds, in this case 2,2′-azo-bis (2-amidinopropane) dihydrochloride (AAPH). Trolox (6-hydroxy-2,5,7,8-tetramethylchroman-2-carboxylic acid) was used as a standard reference. Data is expressed as micromoles of Trolox equivalents (TE) per […] of sample (μmol TE/ml or U/ml).
Antioxidant capacity was determined according to the procedure described previously.

The next data set relates to chick embryo. In words: Chick embryo model of hyperglycemia: mortality, NTD rate, body weight. The format is in vivo. Conditions: glucose 0.4 mmol/egg, EDD 5, dose 0.1 nM. As to the method:
In order to evaluate further the potential of 5f as an agent to treat diseases caused by high glucose inside the system, a chick embryo model of treatment with high glucose was set up.
Fertilized leghorn eggs were purchased from the Avian Farm of the South China Agriculture University (Guangzhou, China). Before the injection of glucose (Sigma–Aldrich, MO, USA), the eggs were incubated in a humidified incubator (Grumbach, Germany) at 37 °C with 60% humidity until the embryos reached the desired stage. […] Glucose was dissolved in 200 μL chicken saline and injected on EDD 1. Mortality, abnormality and body weight measurements were made on EDD 5. Embryos were removed from their eggs and weighed. The percent mortality was measured by counting the number of dead versus all embryos. The rate of NTD of the embryos was assessed by the number of NTD versus survival embryos.

The subject of data set [2] is oxidative stress (ROS, MDA, ORAC). In words: ROS generation, MDA and ORAC level in chick embryos. The format is in vivo. The following applies: glucose-treated chick embryos, EDD 5. The text has this:
It has been reported that hyperglycemia increased the production of ROS. Blocking the generation of ROS could at least partially prevent the possible damage of hyperglycemia. No doubt, oxidative stress will be induced in glucose treated embryos. This conclusion was confirmed by the determination of ROS and malondialdehyde (MDA) levels, and the anti-oxidation ability in chick embryos on EDD 5. […] However, treatment of 5f decreased both levels of ROS and MDA in a dose-dependent manner.
In addition, the ORAC level is indicative of the anti-oxidative capacity.
ROS generation ratios in the eyes of EDD 5 chick embryos were detected with 5 μmol 2′,7′-dichlorofluorescein-diacetate (DCFH-DA, Sigma-Aldrich). The peroxide content was determined by measuring thiobarbituric-acid-reactive substances (TBARS) with a commercial MDA kit (Nanjing Jiancheng Institute of Biotechnology, Nanjing, China). The procedures for the ORAC assay were modified from the previously described method. The automated ORAC assay was carried out on a decay of the fluorescein signal and determined with an excitation/emission filter pair of 485/527 nm in a GENios Lueifcrase microplate reader (TECAN) at 37 °C. Final results were calculated on the basis of the difference in the area under the fluorescein decay curve between the blank and each sample.

The subject of the next data set is ALR2. As to the kind of experiment: AR (ALR2) activity in glucose-treated embryos (chicken AR ELISA kit). Conditions: glucose-treated chick embryos, EDD 5, edaravone group (0.1 nM). The format is in vivo. How it is done: As expected, treatment of 5f decreased ALR2 activity in a dose-dependent manner. […] However, EDA, which is a clinical radical scavenger, was shown no effect on the inhibition of ALR2.
Embryos on EDD 5 were homogenized with chicken saline and centrifuged (4 °C, 10000 rpm, 10 min). The supernatant was used for measuring AR activity in the sample. A chicken AR ELISA kit (Jianglai Biotechnology, China) were used for detection. The concentration of AR in the samples was then determined by comparing the OD of the samples to the standard curve. The sorbitol contents of the chick embryo were determined by a Sorbitol Colorimetric Assay Kit (BioVision, USA). In the assay, sorbitol is oxidized to fructose with the proportional development of intense color with an absorbance maximum at 560 nm.

The mark [3] stands for this setting: human ALR2, D,L-glyceraldehyde as substrate, read-out: IC50 (ALR2 inhibition).

Molecules are shown by their SMILES. Read-outs that look alike come from different tables or passages of the source.

As to `N#CC(=Cc1ccc(O)cc1)C(=O)O` [CHCA, α-cyano-4-hydroxycinnamic acid], inhibition at human ALR2 was half-maximal at 133 ± 1.8 nM (IC50). Also, the values for the ORAC in data set [1] (3.125 μg/ml), in data set [1] (6.25 μg/ml) and in data set [1] (12.5 μg/ml) were 52.3 ± 3.1 U/ml, 51.2 ± 1.1 U/ml and 48.8 ± 1.3 U/ml, respectively.

As for `CC(=O)N1CCC[C@H]1C(=O)NCCNC(=O)/C(C#N)=C/c1ccc(O)cc1` [Compound 5a, (S,E) - 1 - acetyl -N-(2-(2-cyano-3-(4-hydroxyphenyl)acrylamido)ethyl)pyrroli-dine-2-carboxamide], on human ALR2 (setting [3]), the IC50 (as a rule, the point on the concentration scale where inhibition reaches its midpoint) was determined as 137 ± 2.9 nM. The ORAC came to 57.0 ± 2.3 U/ml in data set [1] (3.125 μg/ml), 52.4 ± 2.1 U/ml in data set [1] (6.25 μg/ml) and 49.8 ± 1.7 U/ml in data set [1] (12.5 μg/ml).

In the case of `CC(=O)N1CCC[C@@H]1C(=O)NCCNC(=O)/C(C#N)=C/c1ccc(O)cc1` [Compound 5b, (R,E) -1-acetyl - N - (2-(2-cyano-3-(4-hydroxyphenyl)acrylamido)ethyl)pyrroli-dine-2-carboxamide], the IC50 on human ALR2 (setting [3]) came out at 136 ± 2.4 nM. In addition, the ORAC in data set [1] (3.125 μg/ml) is recorded as 47.1 ± 2.4 U/ml; in data set [1] (6.25 μg/ml), 44.1 ± 2.5 U/ml; in data set [1] (12.5 μg/ml) it was 42.9 ± 3.3 U/ml.

As for `CC(=O)N[C@@H](COCc1ccccc1)C(=O)NCCNC(=O)/C(C#N)=C/c1ccc(O)cc1` [Compound 5c, (S,E) – N - (2 - (2-acetamido-3-(benzyloxy)propanamido)ethyl)-2-cyano-3-(4-hydroxyphenyl)acrylamide], the melting point (usually the temperature of the solid-liquid transition) was 176 to 178 °C. In addition, the IC50 at human ALR2 (setting [3]) amounted to 316 ± 6.2 nM. The ORAC in data set [1] (3.125 μg/ml) amounted to 32.4 ± 1.8 U/ml. The same compound yielded an ORAC in data set [1] (6.25 μg/ml) of 30.4 ± 1.7 U/ml. This compound registered an ORAC in data set [1] (12.5 μg/ml) of 26.4 ± 2.9 U/ml.

In the case of `CC(=O)N[C@H](COCc1ccccc1)C(=O)NCCNC(=O)/C(C#N)=C/c1ccc(O)cc1` [Compound 5d, (R,E) – N - (2 - (2-acetamido-3-(benzyloxy)propanamido)ethyl)-2-cyano-3-(4-hydroxyphenyl)acrylamide], the melting point lay within 175 to 177 °C. For the same compound, on human ALR2 (setting [3]), the IC50 came out at 404 ± 7 nM. Further, the ORAC in data set [1] (3.125 μg/ml) was determined as 38.3 ± 1.9 U/ml. For the same compound, the ORAC in data set [1] (6.25 μg/ml) was determined as 35.4 ± 3.2 U/ml. The ORAC in data set [1] (12.5 μg/ml) stood at 33.3 ± 4.1 U/ml.

Take `CC(=O)N[C@@H](COCc1ccccc1)C(=O)NCCCNC(=O)/C(C#N)=C/c1ccc(O)cc1` [Compound 5e, (S,E) – N - (3-(2-acetamido-3-(benzyloxy)propanamido)propyl)-2-cyano-3-(4-hydroxyphenyl)acrylamide]: the concentration for half-maximal inhibition (IC50) on human ALR2 (setting [3]) came to 99.8 ± 2 nM. Besides, the ORAC is recorded as 65.7 ± 2.7 U/ml in data set [1] (3.125 μg/ml), 62.6 ± 1.5 U/ml in data set [1] (6.25 μg/ml) and 60.4 ± 2.2 U/ml in data set [1] (12.5 μg/ml).

`CC(C)(C)C(=O)N[C@@H](COCc1ccccc1)C(=O)NCCNC(=O)/C(C#N)=C/c1ccc(O)cc1` [Compound 5g, (S,E) - N - (2-(2-pivalamido-3-(benzyloxy)propanamido)ethyl)-2-cyano-3-(4-hydroxyphenyl)acrylamide]: the IC50 at human ALR2 (setting [3]) was 273 ± 4.6 nM. Also, the ORAC in data set [1] (3.125 μg/ml) is 38.3 ± 2.6 U/ml; in data set [1] (6.25 μg/ml), 33.9 ± 1.4 U/ml; in data set [1] (12.5 μg/ml) it was 30.4 ± 3.7 U/ml.

`CC(C)(C)C(=O)N[C@H](COCc1ccccc1)C(=O)NCCNC(=O)/C(C#N)=C/c1ccc(O)cc1` [Compound 5h, (R,E) - N - (2-(2-pivalamido-3-(benzyloxy)propanamido)ethyl)-2-cyano-3-(4-hydroxyphenyl)acrylamide]: the IC50 on human ALR2 (setting [3]) worked out at 252 ± 4.6 nM. For the same compound, the ORAC is reported as 50.3 ± 3.2 U/ml in data set [1] (3.125 μg/ml), 45.2 ± 1.3 U/ml in data set [1] (6.25 μg/ml) and 42.8 ± 1.1 U/ml in data set [1] (12.5 μg/ml).

`CC(C)(C)C(=O)N[C@@H](COCc1ccccc1)C(=O)NCCCNC(=O)/C(C#N)=C/c1ccc(O)cc1` [Compound 5i, (S,E) - N - (3-(2-pivalamido-3-(benzyloxy)propanamido)propyl)-2-cyano-3-(4-hydroxyphenyl)acrylamide]: on human ALR2 (setting [3]), the IC50 turned out to be 221 ± 3.9 nM. Further, the ORAC in data set [1] (3.125 μg/ml) turned out to be 36.4 ± 3.5 U/ml; in data set [1] (6.25 μg/ml), 35.6 ± 3.9 U/ml; in data set [1] (12.5 μg/ml) it was 35.3 ± 2.1 U/ml.

In the case of `CC(C)(C)C(=O)N[C@H](COCc1ccccc1)C(=O)NCCCNC(=O)/C(C#N)=C/c1ccc(O)cc1` [Compound 5j, (R,E) - N - (3-(2-pivalamido-3-(benzyloxy)propanamido)propyl)-2-cyano-3-(4-hydroxyphenyl)acrylamide], the IC50 at human ALR2 (setting [3]) was 247 ± 4.5 nM. For the same compound, the ORAC is reported as 38.6 ± 1.9 U/ml in data set [1] (3.125 μg/ml), 35.3 ± 1.7 U/ml in data set [1] (6.25 μg/ml) and 30.6 ± 2.2 U/ml in data set [1] (12.5 μg/ml).

Turning to `CC1=NN(c2ccccc2)C(=O)C1` [Edaravone, reference compound], in the data set on chick embryo, the Body weight is 310.8 ± 11.6 mg, the “Death (/n)” value worked out at 20.0% and the “NTD (/survival)” value came to 18.8%. Moreover, in data set [2], the “ORAC level (anti-oxidative capacity) of embryo” value is listed as “recovered”. In addition, in the data set with ALR2, the “ALR2 activity in embryo” value is “no effect”.

For the compound `O=c1c2cc(O)c(O)cc2oc2cc(O)c([C@@H]3O[C@H](CO)[C@@H](O)[C@H](O)[C@H]3O)c(O)c12` [Mangiferin, reference compound], the IC50 at human ALR2 (setting [3]) was 138 ± 2.2 nM. In addition, the ORAC in data set [1] (3.125 μg/ml) is on record as 75.3 ± 0.4 U/ml; in data set [1] (6.25 μg/ml) it was 74.8 ± 0.8 U/ml; in data set [1] (12.5 μg/ml), 73.2 ± 7.2 U/ml.

As to `Cc1c(C)c2c(c(C)c1O)CCC(C)(C(=O)O)O2` (stereo not drawn) [Trolox, 6-hydroxy-2,5,7,8-tetramethylchroman-2-carboxylic acid, reference compound], the values for the ORAC in data set [1] (3.125 μg/ml), in data set [1] (6.25 μg/ml) and in data set [1] (12.5 μg/ml) were 95.3 ± 3.7 U/ml, 92.8 ± 2.7 U/ml and 85.2 ± 4.3 U/ml, respectively.
